From BindingDB's records for doi:10.1016/j.bmcl.2009.10.054 (AstraZeneca, 2009) come the findings set out here.

SMILES strings stand for the structures.

This experiment is described as follows: Inhibition of erythropoietin-stimulated STAT5 expressed in human U2OS cells.

On to `Cc1cc(Nc2nc(N[C@@H](C)c3ncc(F)cn3)c(C#N)nc2C)[nH]n1` [(S)-3-(1-(5-fluoropyrimidin-2-yl)ethylamino)-6-methyl-5-(5-methyl-1H-pyrazol-3-ylamino)pyrazine-2-carbonitrile], for which the concentration for a half-maximal effect (EC50) amounted to 40 nM.

As usually defined, the EC50 is the concentration that produces a half-maximal response. Read a low EC50 as higher potency in that assay.
